Holding throughout (assay): Radiometric protein kinase assay (33PanQinase), Assay Condition A (thiol containing)
What all share (assay type): biochemical

One assay has as its target CDK12 wt/CycK (Homo sapiens (Human), UniProt Q9NYV4). Conditions: thiol containing (1.2 mM DTT), ATP 0.3 μM. As to the method:
(§1) The IC50 profile of test compounds was determined using three protein kinases.
(§2) The compounds were provided as pre-weighed powders in vials. The compounds were dissolved to 1×10^−02M by adding DMSO. 100 μl of each of the resulting stock solutions were transferred into column 2 of four 96 well “master plates”.
(§3) Prior to testing, the 1×10^−02M stock solutions in column 2 of the master plates were subjected to a serial, semi-logarithmic dilution using 100% DMSO as a solvent. […] Column 1 and 7 were filled with 100% DMSO as controls. Subsequently, 2×10 μl from each well of the serial diluted copy plates were aliquoted with a 96 channel pipettor into two identical sets of “compound dilution plates”.
(§4) In the process, 90 μl H2O were added to each well of a set of compound dilution plates. To minimize potential precipitation, the H2O was added to each plate only a few minutes before the transfer of the compound solutions into the assay plates. Each plate was shaken thoroughly, resulting in a “compound dilution plate/10% DMSO”.
(§5) For the assays, 5 μl solution from each well of the compound dilution plates/10% DMSO were transferred into the assay plates. The final volume of the assay was 50 μl. All compounds were tested at 10 final assay concentrations in the range from 1×10^−04M to 3×10^−09M, in singlicate. The final DMSO concentration in the reaction cocktails was 1% in all cases.
(§6) All protein kinases were expressed in Sf9 insect cells or in E. coli as recombinant GST-fusion proteins or His-tagged proteins, either as full-length or enzymatically active fragments. All kinases were produced from human cDNAs and purified by either GSH-affinity chromatography or immobilized metal. Affinity tags were removed from a number of kinases during purification. The purity of the protein kinases was examined by SDS-PAGE/Coomassie staining, the identity was checked by mass spectroscopy.
(§7) A radiometric protein kinase assay (^33PanQinase® Activity Assay) was used for measuring the kinase activity of the three protein kinases. All kinase assays were performed in 96-well FlashPlates™ from PerkinElmer (Boston, Mass., USA) in a 50 μl reaction volume. The reaction cocktail was pipetted in four steps in the following order: • 20 μl of assay buffer (standard buffer) • 5 μl of ATP solution (in H2O) • 5 μl of test compound (in 10% DMSO) • 20 μl enzyme/substrate mix
(§8) The reaction cocktails were incubated at 30° C. for 60 minutes. The reaction was stopped with 50 μl of 2% (v/v) H3PO4, plates were aspirated and washed two times with 200 μl 0.9% (w/v) NaCl. Incorporation of ^33Pi was determined with a microplate scintillation counter (Microbeta, Wallac). All assays were performed with a BeckmanCoulter/SAGIAN™ Core System.
(§9) The median value of the counts in column 1 (n=8) of each assay plate was defined as “low control”. This value reflects unspecific binding of radioactivity to the plate in the absence of a protein kinase but in the presence of the substrate. The median value of the counts in column 7 of each assay plate (n=8) was taken as the “high control”, i.e. full activity in the absence of any inhibitor. The difference between high and low control was taken as 100% activity.
(§10) As part of the data evaluation the low control value from a particular plate was subtracted from the high control value as well as from all 80 “compound values” of the corresponding plate. The residual activity (in %) for each well of a particular plate was calculated by using the following formula: Res. Activity (%)=100×[(cpm of compound−low control)/(high control−low control)]
(§11) The residual activities for each concentration and the compound IC50 values were calculated using Quattro Workflow V3.1.1 (Quattro Research GmbH, Munich, Germany). […] The fitting method used was a least-squares fit.

A further assay deals with CDK2/CycA2 (Homo sapiens (Human), UniProt P24941). Conditions: thiol containing (1.2 mM DTT), ATP 0.3 μM. The method, then:
as §1, §2, §3, §4, §5, §6, §7, §8, §9, §10, §11

The target of another assay is CDK7/CycH/MAT1 (Homo sapiens (Human), UniProt P50613). Conditions: thiol containing (1.2 mM DTT), ATP 3.0 μM. As to the method: as §1, §2, §3, §4, §5, §6, §7, §8, §9, §10, §11
CDK7/CycH/MAT1, sequence (P50613 whole entry): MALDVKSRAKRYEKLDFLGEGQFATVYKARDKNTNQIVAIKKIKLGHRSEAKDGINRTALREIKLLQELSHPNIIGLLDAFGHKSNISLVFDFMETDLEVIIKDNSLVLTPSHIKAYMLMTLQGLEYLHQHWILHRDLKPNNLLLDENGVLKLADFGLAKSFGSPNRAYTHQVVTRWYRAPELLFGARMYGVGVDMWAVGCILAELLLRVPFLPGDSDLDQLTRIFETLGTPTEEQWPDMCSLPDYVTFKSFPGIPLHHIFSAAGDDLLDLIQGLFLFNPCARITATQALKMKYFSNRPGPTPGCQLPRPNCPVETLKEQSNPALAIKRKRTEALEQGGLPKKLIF
CDK7/CycH/MAT1, sequence (P51946 whole entry partner): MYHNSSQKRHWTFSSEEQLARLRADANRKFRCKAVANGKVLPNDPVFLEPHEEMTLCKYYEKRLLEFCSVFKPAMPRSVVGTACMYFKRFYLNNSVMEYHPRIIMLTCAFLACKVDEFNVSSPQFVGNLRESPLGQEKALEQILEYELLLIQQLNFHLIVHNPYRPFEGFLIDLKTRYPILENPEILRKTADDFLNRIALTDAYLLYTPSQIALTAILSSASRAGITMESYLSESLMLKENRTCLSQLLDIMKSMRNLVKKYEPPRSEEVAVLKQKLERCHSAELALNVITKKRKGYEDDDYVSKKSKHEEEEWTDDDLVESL
CDK7/CycH/MAT1, sequence (P51948 whole entry partner): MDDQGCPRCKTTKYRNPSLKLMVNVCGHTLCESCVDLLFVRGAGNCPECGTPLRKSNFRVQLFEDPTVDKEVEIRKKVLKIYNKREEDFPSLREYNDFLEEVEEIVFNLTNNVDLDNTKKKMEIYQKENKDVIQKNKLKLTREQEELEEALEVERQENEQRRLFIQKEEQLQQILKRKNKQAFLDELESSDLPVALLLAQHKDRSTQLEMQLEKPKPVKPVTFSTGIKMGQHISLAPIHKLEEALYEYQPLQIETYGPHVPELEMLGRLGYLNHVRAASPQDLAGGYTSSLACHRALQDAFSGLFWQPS

CDK12 wt/CycK, sequence (Q9NYV4 whole entry): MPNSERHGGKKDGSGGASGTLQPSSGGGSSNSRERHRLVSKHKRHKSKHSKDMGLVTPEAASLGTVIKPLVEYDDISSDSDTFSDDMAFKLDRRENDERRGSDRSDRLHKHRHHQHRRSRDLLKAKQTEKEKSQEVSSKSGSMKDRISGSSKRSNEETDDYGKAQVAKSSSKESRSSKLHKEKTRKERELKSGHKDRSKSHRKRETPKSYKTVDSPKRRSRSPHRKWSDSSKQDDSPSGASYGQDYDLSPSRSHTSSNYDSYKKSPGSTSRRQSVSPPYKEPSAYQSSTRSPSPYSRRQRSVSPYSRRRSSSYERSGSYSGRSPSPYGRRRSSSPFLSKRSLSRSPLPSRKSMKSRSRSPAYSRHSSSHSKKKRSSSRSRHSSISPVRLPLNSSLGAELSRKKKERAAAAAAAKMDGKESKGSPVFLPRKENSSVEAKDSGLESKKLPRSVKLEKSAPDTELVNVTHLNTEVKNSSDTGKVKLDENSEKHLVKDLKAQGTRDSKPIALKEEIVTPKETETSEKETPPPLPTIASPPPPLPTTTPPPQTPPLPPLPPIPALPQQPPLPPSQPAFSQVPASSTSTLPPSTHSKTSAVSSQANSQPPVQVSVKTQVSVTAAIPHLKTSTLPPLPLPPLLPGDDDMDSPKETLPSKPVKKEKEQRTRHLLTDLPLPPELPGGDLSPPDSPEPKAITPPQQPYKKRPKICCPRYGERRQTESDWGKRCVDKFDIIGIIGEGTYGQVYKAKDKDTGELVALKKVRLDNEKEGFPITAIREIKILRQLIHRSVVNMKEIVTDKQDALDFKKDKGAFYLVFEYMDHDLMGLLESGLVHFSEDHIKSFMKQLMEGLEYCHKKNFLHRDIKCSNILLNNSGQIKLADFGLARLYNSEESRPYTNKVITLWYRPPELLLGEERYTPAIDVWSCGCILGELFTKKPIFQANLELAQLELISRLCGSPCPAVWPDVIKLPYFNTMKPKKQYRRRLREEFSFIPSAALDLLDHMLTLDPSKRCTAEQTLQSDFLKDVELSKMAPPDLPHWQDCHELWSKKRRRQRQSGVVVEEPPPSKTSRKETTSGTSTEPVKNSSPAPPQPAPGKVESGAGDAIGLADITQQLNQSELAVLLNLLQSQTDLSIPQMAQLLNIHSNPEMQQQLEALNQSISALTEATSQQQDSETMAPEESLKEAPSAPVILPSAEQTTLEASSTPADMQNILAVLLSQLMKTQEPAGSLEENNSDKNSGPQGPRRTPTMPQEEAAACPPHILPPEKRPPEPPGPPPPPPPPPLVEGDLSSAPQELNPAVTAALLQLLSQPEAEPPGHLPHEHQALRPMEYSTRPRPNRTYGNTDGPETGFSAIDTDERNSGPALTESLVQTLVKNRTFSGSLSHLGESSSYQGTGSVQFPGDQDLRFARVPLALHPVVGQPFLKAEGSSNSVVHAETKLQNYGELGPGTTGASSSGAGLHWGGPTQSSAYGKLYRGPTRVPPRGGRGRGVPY
CDK12 wt/CycK, sequence (O75909 whole entry partner): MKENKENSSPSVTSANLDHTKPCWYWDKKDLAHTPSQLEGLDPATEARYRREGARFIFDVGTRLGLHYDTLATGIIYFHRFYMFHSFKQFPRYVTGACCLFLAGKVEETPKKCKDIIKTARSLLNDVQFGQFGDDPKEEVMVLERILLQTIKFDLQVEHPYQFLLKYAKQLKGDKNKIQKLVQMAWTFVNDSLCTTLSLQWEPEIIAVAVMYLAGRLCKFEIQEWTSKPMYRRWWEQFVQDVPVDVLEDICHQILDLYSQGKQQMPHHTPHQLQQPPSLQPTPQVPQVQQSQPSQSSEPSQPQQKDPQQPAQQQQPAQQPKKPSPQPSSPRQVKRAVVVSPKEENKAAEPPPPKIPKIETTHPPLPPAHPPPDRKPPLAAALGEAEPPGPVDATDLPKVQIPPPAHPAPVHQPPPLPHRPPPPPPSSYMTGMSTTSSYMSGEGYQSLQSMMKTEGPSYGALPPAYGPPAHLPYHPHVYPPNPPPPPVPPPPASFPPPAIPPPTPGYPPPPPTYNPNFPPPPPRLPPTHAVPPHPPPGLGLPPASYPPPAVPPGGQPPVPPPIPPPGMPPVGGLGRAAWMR

As usually defined, the IC50 is the concentration at which inhibition is half-maximal. Low values mean inhibition by little substance, high ones a need for much substance. Take `C=CC(=O)Nc1ccc(C(=O)N2CCC[C@@H](Nc3ncc4ccccc4n3)C2)cc1` [Example 1, (R)-N-(4-(3-(quinazolin-2-ylamino)piperidine-1-carbonyl)phenyl)acrylamide]: the IC50 at CDK12 wt/CycK fell in the range of 1 to 10 µM.
Take `C=CC(=O)Nc1ccc(C(=O)N2CCC[C@@H](Nc3cc4ccccc4cn3)C2)cc1` [Example 2, (R)-N-(4-(3-(isoquinolin-3-ylamino)piperidine-1-carbonyl)phenyl)acrylamide]: the IC50 on CDK12 wt/CycK is 1 to 10 µM; against CDK2/CycA2, 30 to 100 µM; against CDK7/CycH/MAT1, 30 to 100 µM.
Consider `C=CC(=O)Nc1ccc(C(=O)N2CCC[C@@H](Nc3ncc4cc(Cl)ccc4n3)C2)cc1` [Example 3, (R)-N-(4-(3-((6-chloroquinazolin-2-yl)amino)piperidine-1-carbonyl)phenyl)acrylamide], for which the figures for the IC50 on CDK12 wt/CycK, against CDK2/CycA2 and at CDK7/CycH/MAT1 were 1 to 10 µM, 30 to 100 µM and 30 to 100 µM, respectively.
Regarding `C=CC(=O)Nc1ccc(C(=O)N2CCC[C@@H](Nc3ncc4cc(F)ccc4n3)C2)cc1` [Example 4, (R)-N-(4-(3-((6-fluoroquinazolin-2-yl)amino)piperidine-1-carbonyl)phenyl)acrylamide], the IC50 on CDK12 wt/CycK lay within 1 to 10 µM; against CDK2/CycA2, 30 to 100 µM; on CDK7/CycH/MAT1, 30 to 100 µM.
Turning to `C=CC(=O)Nc1ccc(C(=O)N2CCC[C@@H](Nc3ncc4ccc(F)cc4n3)C2)cc1` [Example 5, (R)-N-(4-(3-((7-fluoroquinazolin-2-yl)amino)piperidine-1-carbonyl)phenyl)acrylamide], the IC50 against CDK12 wt/CycK lay in the range of 1 to 10 µM; on CDK2/CycA2 it was 30 to 100 µM; at CDK7/CycH/MAT1, 30 to 100 µM.
For the molecule `C=CC(=O)Nc1ccc(C(=O)N2CCC[C@@H](Nc3ncc4ccc(OC)cc4n3)C2)cc1` [Example 6, (R)-N-(4-(3-((7-methoxyquinazolin-2-yl)amino)piperidine-1-carbonyl)phenyl)acrylamide], the concentration for half-maximal inhibition (IC50) against CDK12 wt/CycK fell in the range of 10 to 30 µM; against CDK2/CycA2, 30 to 100 µM; on CDK7/CycH/MAT1 it was 30 to 100 µM.
On to `C=CC(=O)Nc1ccc(C(=O)N2CCC[C@@H](Nc3ncc4cc(OC)ccc4n3)C2)cc1` [Example 7, (R)-N-(4-(3-((6-methoxyquinazolin-2-yl)amino)piperidine-1-carbonyl)phenyl)acrylamide], for which the 50% inhibitory concentration (IC50) against CDK12 wt/CycK, against CDK2/CycA2 and against CDK7/CycH/MAT1 was 30 to 100 µM each time.
As to `C=CC(=O)Nc1ccc(C(=O)N2CCC[C@@H](Nc3ncc4cc(C)ccc4n3)C2)cc1` [Example 8, (R)-N-(4-(3-((6-methylquinazolin-2-yl)amino)piperidine-1-carbonyl)phenyl)acrylamide], the IC50 against CDK12 wt/CycK was 10 to 30 µM; on CDK2/CycA2, 30 to 100 µM; against CDK7/CycH/MAT1, 30 to 100 µM.
Take `C=CC(=O)Nc1ccc(C(=O)N2CCC[C@@H](Nc3ncc4ccc(C)cc4n3)C2)cc1` [Example 9, (R)-N-(4-(3-((7-methylquinazolin-2-yl)amino)piperidine-1-carbonyl)phenyl)acrylamide]: the 50% inhibitory concentration (IC50) against CDK12 wt/CycK lay within 10 to 30 µM; at CDK2/CycA2, 30 to 100 µM; on CDK7/CycH/MAT1, 30 to 100 µM.
For the molecule `C=CC(=O)Nc1ccc(C(=O)N2CCC[C@@H](Nc3ncc4ccc(Cl)cc4n3)C2)cc1` [Example 10, (R)-N-(4-(3-((7-chloroquinazolin-2-yl)amino)piperidine-1-carbonyl)phenyl)acrylamide], the IC50 fell in the range of 1 to 10 µM at CDK12 wt/CycK, 30 to 100 µM at CDK2/CycA2 and 30 to 100 µM against CDK7/CycH/MAT1.
For `C=CC(=O)Nc1ccc(C(=O)N2CCC[C@@H](Nc3ncc4ccc(S(C)(=O)=O)cc4n3)C2)cc1` [Example 11, (R)-N-(4-(3-((7-(methylsulfonyl)quinazolin-2-yl)amino)piperidine-1-carbonyl)phenyl)acrylamide], the IC50 lay within 1 to 10 µM against CDK12 wt/CycK, 10 to 30 µM on CDK2/CycA2 and 30 to 100 µM against CDK7/CycH/MAT1.
On to `C=CC(=O)Nc1ccc(C(=O)N2CCC[C@@H](Nc3ncc4ccc(C(N)=O)cc4n3)C2)cc1` [Example 13, (R)-2-((1-(4-acrylamidobenzoyl)piperidin-3-yl)amino)quinazoline-7-carboxamide], for which the results for the IC50 against CDK12 wt/CycK, against CDK2/CycA2 and on CDK7/CycH/MAT1 were 0.1 to 1 µM, 1 to 10 µM and 10 to 30 µM, respectively.
The like results for `C=CC(=O)Nc1ccc(C(=O)N2CCC[C@@H](Nc3ncc4ccc(C(=O)O)cc4n3)C2)cc1` [Example 14, (R)-2-((1-(4-acrylamidobenzoyl)piperidin-3-yl)amino)quinazoline-7-carboxylic acid] were, in that order, 0.1 to 1 µM, 1 to 10 µM and 10 to 30 µM.
For the molecule `C=CC(=O)Nc1ccc(C(=O)N2CCC[C@@H](Nc3ncc4ccc(=O)n(C(C)C)c4n3)C2)cc1` [Example 15, (R)-N-(4-(3-((8-isopropyl-7-oxo-7,8-dihydropyrido[2,3-d]pyrimidin-2-yl)amino)piperidine-1-carbonyl)phenyl)acrylamide], the IC50 at CDK12 wt/CycK is 1 to 10 µM; against CDK2/CycA2 it was 10 to 30 µM; at CDK7/CycH/MAT1, 30 to 100 µM.
With `C=CC(=O)Nc1ccc(C(=O)N2CCC[C@@H](Nc3ncc4ccc(=O)[nH]c4n3)C2)cc1` [Example 16, (R)-N-(4-(3-((7-oxo-7,8-dihydropyrido[2,3-d]pyrimidin-2-yl)amino)piperidine-1-carbonyl)phenyl)acrylamide], the IC50 against CDK12 wt/CycK was in the range of 10 to 30 µM; at CDK2/CycA2 it was 30 to 100 µM; against CDK7/CycH/MAT1, 30 to 100 µM.
Take `CCC(=O)Nc1ccc(C(=O)N2CCC[C@@H](Nc3ncc4ccccc4n3)C2)cc1` [Example 17, (R)-N-(4-(3-(quinazolin-2-ylamino)piperidine-1-carbonyl)phenyl)propionamide]: the half-maximal inhibitory concentration (IC50) on CDK12 wt/CycK, at CDK2/CycA2 and at CDK7/CycH/MAT1 was 30 to 100 µM each time.
As to `C=CC(=O)Nc1ccc(C(=O)N2CC[C@@H](Nc3ncc4ccc(C(=O)NC)cc4n3)C2)cc1` [Example 58, (R)-2-((1-(4-acrylamidobenzoyl)pyrrolidin-3-yl)amino)-N-methylquinazoline-7-carboxamide], the 50% inhibitory concentration (IC50) on CDK7/CycH/MAT1 is 0.1 to 1 µM.
On to `C=CC(=O)Nc1ccc(C(=O)N2CC[C@@H](Nc3ncc4ccccc4n3)C2)cn1` [Example 67, (R)—N-(5-(3-(quinazolin-2-ylamino)pyrrolidine-1-carbonyl)pyridin-2-yl)acrylamide], for which the 50% inhibitory concentration (IC50) on CDK7/CycH/MAT1 was 0.1 to 1 µM.
Regarding `C=CC(=O)Nc1ccc(C(=O)N2CC[C@@H](Nc3ncc4cc(F)ccc4n3)C2)cc1F` [Example 69, (R)—N-(2-fluoro-4-(3-((6-fluoroquinazolin-2-yl)amino)pyrrolidine-1-carbonyl)phenyl)acrylamide], the results for the IC50 against CDK12 wt/CycK and against CDK2/CycA2 were no more than 0.1 µM and 1 to 10 µM, respectively.
The like results for `C#CC(=O)Nc1ccc(C(=O)N2CC[C@@H](Nc3ncc4ccccc4n3)C2)cc1` [Example 70, (R)—N-(4-(3-(quinazolin-2-ylamino)pyrrolidine-1-carbonyl)phenyl)propiolamide] were, in that order, no more than 0.1 µM and 0.1 to 1 µM.
In the case of `C=CC(=O)Nc1ccc(C(=O)N2CC[C@@H](Nc3ncc4ccccc4n3)C2)cc1OC` [Example 71, (R)—N-(2-methoxy-4-(3-(quinazolin-2-ylamino)pyrrolidine-1-carbonyl)phenyl)acrylamide], the IC50 against CDK12 wt/CycK was no more than 0.1 µM.
On to `C=CC(=O)Nc1ccc(C(=O)N2CC[C@@H](Nc3ncc4ccccc4n3)C2)c(OC)c1` [Example 73, (R)—N-(3-methoxy-4-(3-(quinazolin-2-ylamino)pyrrolidine-1-carbonyl)phenyl)acrylamide], for which, at CDK12 wt/CycK, the half-maximal inhibitory concentration (IC50) lay in the range of 0.1 to 1 µM.
Turning to `C=CC(=O)N1CCCc2cc(C(=O)N3CC[C@@H](Nc4ncc5ccccc5n4)C3)ccc21` [Example 79, (R)-1-(6-(3-(quinazolin-2-ylamino)pyrrolidine-1-carbonyl)-3,4-dihydroquinolin-1(2H)-yl)prop-2-en-1-one], the IC50 on CDK12 wt/CycK was no more than 0.1 µM; against CDK2/CycA2 it was 1 to 10 µM.

Values taken from US11447493B2 (Kinnate Biopharma Inc., priority 2018, dated 2022).
